A word on the IC50: it is the concentration that inhibits the measured activity by half.

The target of this assay is Dephosphorylated BTK (Homo sapiens, UniProt Q06187). As to the kind of experiment: Test of activity inhibition against dephosphorylated BTK (mobility shift assay).
Chain of Dephosphorylated BTK (Q06187 whole entry): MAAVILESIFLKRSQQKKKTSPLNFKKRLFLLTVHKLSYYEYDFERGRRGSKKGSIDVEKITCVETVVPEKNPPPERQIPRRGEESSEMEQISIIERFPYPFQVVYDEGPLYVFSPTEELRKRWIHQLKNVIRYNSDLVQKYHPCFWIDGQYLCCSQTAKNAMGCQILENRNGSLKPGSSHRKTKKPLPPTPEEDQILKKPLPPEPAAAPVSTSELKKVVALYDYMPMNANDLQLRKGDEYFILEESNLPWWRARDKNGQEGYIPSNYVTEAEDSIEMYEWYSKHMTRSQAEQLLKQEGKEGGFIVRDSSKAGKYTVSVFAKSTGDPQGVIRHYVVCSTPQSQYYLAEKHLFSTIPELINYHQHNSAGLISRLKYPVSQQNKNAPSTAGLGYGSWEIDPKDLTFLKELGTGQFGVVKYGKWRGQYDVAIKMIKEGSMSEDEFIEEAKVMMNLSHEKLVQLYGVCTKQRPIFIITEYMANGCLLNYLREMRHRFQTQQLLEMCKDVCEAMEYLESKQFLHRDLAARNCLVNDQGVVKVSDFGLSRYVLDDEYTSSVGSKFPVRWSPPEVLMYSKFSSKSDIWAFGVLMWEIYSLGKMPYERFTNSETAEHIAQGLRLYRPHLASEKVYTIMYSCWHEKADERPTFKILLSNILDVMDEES
Method: Kinase activity was measured by a mobility shift assay (MSA) method using QuickScout Screening Assist (trademark) MSA (commercially available kit, manufactured by Carna Biosciences, Inc.). FITC-labeled SRCtide peptide supplied with the kit was used as a substrate of a kinase reaction.
IC50 value was calculated by regression analysis of the inhibition ratio and the test compound concentration (logarithm).
Dephosphorylated BTK was obtained by adding a A protein phosphatase (Code No. P0753S, manufactured by New England BioLabs Inc.) and MnCl2 to a biotinylated BTK protein BTN-BTK (manufactured by Carna Biosciences, Inc.) enzyme solution so as to adjust the concentrations to 10 U/μg and 2 mM, respectively, reacting the mixture at 4° C. overnight, removing the A protein phosphatase through anti-[sequence]-tag antibody agarose gel chromatography, and performing buffer exchange using 10DG Desalting Column.
Turning to `Cc1c(NC(=O)c2ccc(C(C)(C)C)cc2)cccc1-c1ncnc(Nc2ccc(C(=O)NCCN(C)C)cc2)n1` [Example 17, 4-(tert-Butyl)-N-(3-{4-[(4-{[2-(dimethylami-no)ethyl]carbamoyl}phe-nyl)amino]-1,3,5-tri-azin-2-yl)-2-methyl-phenyl)benzamide], the IC50 is 5.1 nM.
The same measure for `Cc1c(NC(=O)c2ccc(C(C)(C)C)cc2)cccc1-c1ncnc(Nc2ccc(C(=O)NC(CO)CO)cc2)n1` [Example 19, 4-(tert-Butyl)-N-{3-[4-({4-[(1,3-dihydroxypropan-2-yl)carbamoyl]phenyl}amino)-1,3,5-triazin-2-yl]-2-methyl-phenyl}benzamide]: 6.1 nM; for `Cc1c(NC(=O)c2ccc(C(C)(C)C)cc2)cccc1-c1ncnc(Nc2ccc(N3CCOCC3)cc2)n1` [Example 24, 4-(tert-Butyl)-N-(2-meth-yl-3-{4-[(4-morpho-linophenyl)amino]-1,3,5-triazin-2-yl}phenyl) benzamide]: 3.4 nM; for `Cc1c(NC(=O)c2ccc(C(C)(C)C)cc2)cccc1-c1ncnc(Nc2ccc(CN3CCOCC3)cc2)n1` [Example 25, 4-(tert-Butyl)-N-[2-meth-yl-3-(4-{[4-(morpho-linomethyl)phenyl]ami-no}-1,3,5-triazin-2-yl)phenyl]benzamide]: 3.5 nM.
The same measure for `COCCOc1ccc(Nc2nc(N)nc(-c3cccc(NC(=O)c4ccc(C(C)(C)C)cc4)c3C)n2)cc1` [Example 34, N-[3-(4-Amino-6-{[4-(2-methoxyethoxy)phenyl]amino}-1,3,5-triazin-2-yl)-2-methylphenyl]-4-(tert-butyl)benz-amide]: 4 nM; for `Cc1c(NC(=O)c2ccc(C(C)(C)C)cc2)cccc1-c1ncnc(Nc2ccc(C3C(=O)N(C)CCN3C)cc2)n1` (stereo not drawn) [Example 37, 4-(tert-Butyl)-N-[3-(4-{[4-(1,4-dimethyl-3-oxopiperazin-2-yl)phe-nyl]amino}-1,3,5-tri-azin-2-yl)-2-methyl-phenyl]benzamide]: 2.7 nM.
To `Cc1c(NC(=O)c2ccc(C(C)(C)C)cc2)cccc1-c1nc(N)nc(Nc2ccc(CN3CCOCC3)cc2)n1` [Example 38, N-[3-(4-Amino-6-{[4-(mor-pholinomethyl)phe-nyl]amino}-1,3,5-triazin-2-yl)-2-methylphe-nyl]-4-(tert-butyl)benz-amide] belongs 1.2 nM.
`Cc1c(-c2nc(N)nc(Nc3ccc(C(=O)N4CCOCC4)cc3)n2)cccc1N1Cc2cc(C(C)(C)C)sc2C1=O` [Example 42, 5-[3-(4-Amino-6-{[4-(morpholine-4-carbonyl)phenyl]amino}-1,3,5-triazin-2-yl)-2-methylphenyl]-2-(tert-butyl)-4H-thieno[2,3-c]pyrrol-6(5H)-one]: the IC50 is 6.5 nM.
To `Nc1nc(Nc2ccc(CN3CCOCC3)cc2)nc(-c2cccc(N3CCc4cc(C5CC5)cc(F)c4C3=O)c2CO)n1` [Example 45, 2-[3-(4-Amino-6-{[4-(morpho-linomethyl)phe-nyl]amino}-1,3,5-tri-azin-2-yl)-2-(hydroxymeth-yl)phenyl]-6-cyclopro-pyl-8-fluoro-3,4-di-hydroisoquinolin-1(2H)-one] belongs 1.7 nM; to `Nc1nc(Nc2ccc(N3CCOCC3)nc2)nc(-c2cccc(N3CCc4cc(C5CC5)cc(F)c4C3=O)c2CO)n1` [Example 46, 2-(3-{4-Amino-6-[(6-morpho-linopyridin-3-yl)amino]-1,3,5-triazin-2-yl}-2-(hydroxymeth-yl)phenyl)-6-cyclopro-pyl-8-fluoro-3,4-dihy-droisoquinolin-1(2H)-one], 5.2 nM; to `CN1CCN(C)C(c2ccc(Nc3nc(N)nc(-c4cccc(N5CCc6cc(C7CC7)cc(F)c6C5=O)c4CO)n3)cc2)C1=O` (stereo not drawn) [Example 47, 2-[3-(5-Amino-6-{[4-(1,4-dimethyl-3-oxopipera-zin-2-yl)phenyl]ami-no}-1,3,5-triazin-2-yl)-2-(hydroxymethyl)phenyl]-6-cyclopropyl-8-fluoro-3,4-dihydro-isoquinolin-1(2H)-one], 1.6 nM.
To `COCCOc1ccc(Nc2nc(N)nc(-c3cccc(N4CCc5cc(C6CC6)cc(F)c5C4=O)c3CO)n2)cc1OCCOC` [Example 48, 2-[3-(4-Amino-6-{[3,4-bis(2-methoxyethoxy)phenyl]amino}-1,3,5-tri-azin-2-yl}-2-(hydroxy-methyl)phenyl]-6-cyclo-propyl-8-fluoro-3,4-dihydroisoquinolin-1(2H)-one] belongs 3.4 nM; to `Nc1nc(Nc2ccc(Cn3cncn3)cc2)nc(-c2cccc(N3CCc4cc(C5CC5)cc(F)c4C3=O)c2CO)n1` [Example 49, 2-{3-[4-({4-[(1H-1,2,4-Triazol-1-yl)methyl]phenyl}amino)-6-amino-1,3,5-triazin-2-yl]-2-(hydroxymethyl)phe-nyl}-6-cyclopropyl-8-fluoro-3,4-dihydroiso-quinolin-1(2H)-one], 1.1 nM; to `Nc1nc(Nc2ccc(Cn3cccn3)cc2)nc(-c2cccc(N3CCc4cc(C5CC5)cc(F)c4C3=O)c2CO)n1` [Example 50, 2-{3-[4-({4-[(1H-Pyra-zol-1-yl)methyl]phenyl}amino)-6-amino-1,3,5-triazin-2-yl]-2-(hy-droxymethyl)phenyl}-6-cyclopropyl-8-fluoro-3,4-dihydroisoquino-lin-1(2H)-one], 1 nM.
To `Nc1nc(Nc2cccc(Cn3cncn3)c2)nc(-c2cccc(N3CCc4cc(C5CC5)cc(F)c4C3=O)c2CO)n1` [Example 51, 2-{3-[4-({3-[(1H-1,2,4-Triazol-1-yl)methyl]phenyl}amino)-6-amino-1,3,5-triazin-2-yl]-2-(hydroxymethyl)phe-nyl}-6-cyclopropyl-8-fluoro-3,4-dihydroiso-quinolin-1(2H)-one] belongs 2 nM.
Take `Nc1nc(Nc2ccc(N3CCC(O)CC3)cc2)nc(-c2cccc(N3CCc4cc(C5CC5)cc(F)c4C3=O)c2CO)n1` [Example 52, 2-[3-(4-Amino-6-{[4-(4-hydroxypiperidin-1-yl)phenyl]amino}-1,3,5-triazin-2-yl)-2-(hy-droxymethyl)phenyl]-6-cyclopropyl-8-fluoro-3,4-dihydroisoquinolin-1(2H)-one]: the IC50 is 1.6 nM.
The same measure for `Nc1nc(Nc2ccc(N3CCCC(O)C3)cc2)nc(-c2cccc(N3CCc4cc(C5CC5)cc(F)c4C3=O)c2CO)n1` (stereo not drawn) [Example 53, 2-[3-(4-Amino-6-{[4-(3-hydroxypiperidin-1-yl)phenyl]amino}-1,3,5-triazin-2-yl)-2-(hy-droxymethyl)phenyl]-6-cyclopropyl-8-fluoro-3,4-dihydroisoquinolin-1(2H)-one]: 1.8 nM.
The same measure for `CC(C)(C)c1ccc(C(=O)Nc2cccc(-c3nc(N)nc(Nc4ccc(O)cc4)n3)c2CO)cc1` [Example 65, N-(3-{4-Amino-6-[(4-hy-droxyphenyl)amino]-1,3,5-triazin-2-yl}-2-(hydroxymethyl)phenyl)-4-(tert-butyl)benza-mide]: 0.6 nM; for `Cc1c(NC(=O)c2cc3c(s2)CCCC3)cccc1-c1nc(N)nc(Nc2ccc(C(=O)N3CCOCC3)cc2)n1` [Example 66, N-[3-(4-Amino-6-{[4-(morpho-line-4-carbonyl)phenyl]amino}-1,3,5-triazin-2-yl)-2-methyl-phenyl]-4,5,6,7-tetra-hydrobenzo[b]thiophene-2-carboxamide]: 3.2 nM; for `CC(C)(C)c1cc2c(s1)C(=O)N(c1cccc(-c3nc(N)nc(Nc4ccc(N5CCOCC5)cc4)n3)c1CO)C2` [Example 73, 5-(3-{4-Amino-6-[(4-morpho-linophenyl)amino]-1,3,5-triazin-2-yl}-2-(hydroxymethyl)phe-nyl)-2-(tert-butyl)-4H-thieno[2,3-c]pyrrol-6(5H)-one]: 1.3 nM.
To `COCCOc1ccc(Nc2nc(N)nc(-c3cccc(NC(=O)c4ccc(C(C)(C)C)cc4)c3CO)n2)cc1` [Example 74, N-[3-(4-Amino-6-{[4-(2-methoxyethoxy)phenyl]amino}-1,3,5-triazin-2-yl)-2-(hydroxymeth-yl)phenyl]-4-(tert-butyl) benzamide] belongs 0.7 nM; to `CC(C)(C)c1cc2c(s1)C(=O)N(c1cccc(-c3nc(N)nc(Nc4ccc(CN5CCOCC5)cc4)n3)c1CO)C2` [Example 77, 5-[3-(4-Amino-6-{[4-(morpho-linomethyl)phe-nyl]amino}-1,3,5-triazin-2-yl)-2-(hydroxymeth-yl)phenyl]-2-(tert-butyl)-4H-thieno[2,3-c]pyrrol-6(5H)-one], 3.4 nM; to `CC(C)(C)c1ccc(C(=O)Nc2cccc(-c3nc(N)nc(Nc4ccc(OCCN5CCOCC5)cc4)n3)c2CO)cc1` [Example 78, N-[3-(4-Amino-6-{[4-(2-morpholinoethoxy)phe-nyl]amino}-1,3,5-tri-azin-2-yl)-2-(hydroxy-methyl)phenyl]-4-(tert-butyl)benzamide], 1.2 nM.
Regarding `CC(C)(C)c1ccc(C(=O)Nc2cccc(-c3nc(N)nc(Nc4ccc(CN5CCOCC5)cc4)n3)c2CO)cc1` [Example 79, N-[3-(4-Amino-6-{[4-(morpho-linomethyl)phe-nyl]amino}-1,3,5-triazin-2-yl)-2-(hydroxymeth-yl)phenyl]-4-(tert-butyl)benzamide], the IC50 was found to be 0.6 nM.
To `Cc1c(NC(=O)c2ccc(C(C)(C)C)cc2)cccc1-c1nc(N)nc(Nc2ccc(N3CCC(N4CCOCC4)CC3)cc2)n1` [Example 80, N-[3-(4-Amino-6-{[4-(4-morpholinopiperidin-1-yl)phenyl]amino}-1,3,5-triazin-2-yl)-2-methylphenyl]-4-(tert-butyl)benzamide] belongs 2.1 nM; to `Cc1c(NC(=O)c2ccc(C(C)(C)C)cc2)cccc1-c1nc(N)nc(Nc2ccc(N3CCCC(O)C3)cc2)n1` (stereo not drawn) [Example 81, N-[3-(4-Amino-6-{[4-(3-hydroxypiperidin-1-yl)phenyl]amino}-1,3,5-triazin-2-yl)-2-meth-ylphenyl]-4-(tert-bu-tyl)benzamide], 2.2 nM.
As to `CN1CCN(C)C(c2ccc(Nc3nc(N)nc(-c4cccc(N5Cc6cc(C(C)(C)C)sc6C5=O)c4CO)n3)cc2)C1=O` (stereo not drawn) [Example 83, 5-[3-(4-Amino-6-{[4-(1,4-dimethyl-3-oxo-piperazin-2-yl)phenyl]ami-no}-1,3,5-triazin-2-yl)-2-(hydroxymethyl)phenyl]-2-(tert-butyl)-4H-thieno[2,3-c]pyr-rol-6(5H)-one], the IC50 was determined as 1.8 nM.
